Reference: patent US7585859B2, “PDE4B inhibitors and uses therefor” (Plexxikon, Inc., priority 2004, dated 2009)
Read-outs that look alike come from different tables or passages of the source.

Columns and labels:
[1] = target: T1, PDE4B: The catalytic domain of human PDE4B from S152-S528 (Homo sapiens, UniProt Q07343); assay: PDE4 IC50 determination by Scintillation Proximity Assay, PDE4B; format: biochemical
T1 construct: His6 (N); thrombin cleavage site (N); made in house; host or cells: E. coli
Outline: (§1)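 Scintillation counts reflected [^3H]AMP captured on yttrium silicate SPA beads after enzyme hydrolysed [^3H]cAMP for 30 min at 30°. PDE4B was used at 80 ng/ml and PDE4D at 4 ng/ml. IC50 values came from non-linear regression.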

PDE4D = target: T2, PDE4D (Homo sapiens, UniProt Q08499); assay: PDE4 IC50 determination by Scintillation Proximity Assay, PDE4D; format: biochemical
T2 construct: PDE4D: The catalytic domain of human PDE4B from S3 16-V692; His6 (N); thrombin cleavage site (N); made in house; host or cells: E. coli
Outline: as §1

[2] = Table 1B, Formula I compounds, read-out: IC50 PDE4B
[3] = Table 1B, Formula I compounds, read-out: IC50 PDE4D
[4] = Table 3A, Formula III compounds, read-out: IC50 PDE4B
[5] = Table 3A, Formula III compounds, read-out: IC50 PDE4D
[6] = second part of Table 2B (2-23 to 2-103), column 3, column is PDE4B in first part, read-out: IC 50 vs. indicated assay h TNFα
[7] = second part of Table 2B (2-23 to 2-103), column 5, column is PDE4D in first part, read-out: IC 50 vs. indicated assay h TNFα

T1 sequence (Q07343 with tags, fused parts or gaps): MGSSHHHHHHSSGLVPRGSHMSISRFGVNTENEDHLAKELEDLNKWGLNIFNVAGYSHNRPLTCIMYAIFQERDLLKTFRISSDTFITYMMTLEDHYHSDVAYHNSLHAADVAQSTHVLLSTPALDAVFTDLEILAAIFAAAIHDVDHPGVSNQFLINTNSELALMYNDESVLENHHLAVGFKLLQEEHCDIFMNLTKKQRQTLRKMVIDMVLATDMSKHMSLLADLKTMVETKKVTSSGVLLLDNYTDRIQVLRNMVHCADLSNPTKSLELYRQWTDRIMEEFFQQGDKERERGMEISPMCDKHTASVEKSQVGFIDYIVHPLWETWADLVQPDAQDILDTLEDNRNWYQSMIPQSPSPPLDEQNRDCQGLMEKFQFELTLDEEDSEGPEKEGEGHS
T2 sequence (Q08499 380-756): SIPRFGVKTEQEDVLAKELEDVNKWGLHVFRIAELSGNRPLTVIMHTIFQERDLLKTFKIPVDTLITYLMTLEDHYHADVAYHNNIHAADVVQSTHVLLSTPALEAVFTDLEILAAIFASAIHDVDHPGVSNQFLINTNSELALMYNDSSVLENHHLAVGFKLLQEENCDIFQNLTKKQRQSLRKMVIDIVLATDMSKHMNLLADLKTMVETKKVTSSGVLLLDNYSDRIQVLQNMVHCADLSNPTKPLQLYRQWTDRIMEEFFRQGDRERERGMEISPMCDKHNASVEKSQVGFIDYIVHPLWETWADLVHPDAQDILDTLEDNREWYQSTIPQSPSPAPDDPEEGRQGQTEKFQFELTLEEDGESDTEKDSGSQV

IC50 [1, 2] | IC50 (PDE4D; [3]) | Compound | further results
> 10 µM | > 10 µM | CC1C2=C(CC(C)(C)CC2=O)Nc2sc(C(N)=O)c(N)c21 (centres unmarked) [Compound 1-4, 3-Amino-4,7,7-trimethyl-5-oxo-4,5,6,7,8,9-hexahydro-thieno[2,3-b]quinoline-2-carboxylic acid amide] | –
> 10 µM | > 10 µM | N#Cc1c(NCCN2CCCCC2)sc(C(=O)c2coc3ccccc23)c1N [Compound 1-45, 4-Amino-5-(benzofuran-3-carbonyl)-2-(2-piperidin-1-yl-ethylamino)-thiophene-3-carbonitrile] | –
– | – | Cc1nc(-c2ccc(S(=O)(=O)Nc3cccc4cccnc34)s2)cs1 [Compound 3-33, 5-(2-Methyl-thiazol-4-yl)-thiophene-2-sulfonic acid quinolin-8-ylamide] | IC50 [1, 4]: < 10 µM; IC50 (PDE4D; [5]): < 10 µM
< 10 µM | < 10 µM | COC(=O)C(CC(C)C)Nc1sc(C(=O)c2ccc(-c3ccccn3)s2)c(N)c1C#N (centres unmarked) [Compound 1-72, 2-[4-Amino-3-cyano-5-(5-pyridin-2-yl-thiophene-2-carbonyl)-thiophen-2-ylamino]-4-methyl-pentanoic acid methyl ester] | –
< 10 µM | > 10 µM | Cc1ccc(C(=O)c2sc(NC3CCOC3=O)c(C#N)c2N)c(C)c1 (centres unmarked) [Compound 1-91, 4-Amino-5-(2,4-dimethyl-benzoyl)-2-(2-oxo-tetrahydro-furan-3-ylamino)-thiophene-3-carbonitrile] | –
< 10 µM | > 10 µM | N#Cc1c(NC2CCCC2)sc(C(=O)c2ccc(Cl)cc2)c1N [Compound 1-182, 4-Amino-5-(4-chloro-benzoyl)-2-cyclopentylamino-thiophene-3-carbonitrile] | –
– | – | N#Cc1cccc(Nc2nc(N)c(C(=O)C3CCCC3)s2)c1 [Compound 2-100, 3-(4-Amino-5-cyclopentanecarbonyl-thiazol-2-ylamino)-benzonitrile] | IC50 [1, 6]: < 10 µM; IC50 (PDE4D; [7]): < 10 µM
– | – | COc1cc(NS(=O)(=O)c2ccc(Br)s2)c2ncccc2c1 [Compound 3-2, 5-Bromo-thiophene-2-sulfonic acid (6-methoxy-quinolin-8-yl)-amide] | IC50 [1, 4]: > 10 µM; IC50 (PDE4D; [5]): > 10 µM
> 10 µM | > 10 µM | N#Cc1c(NCCN2CCCCC2)sc(C(=O)c2cccc(Cl)c2)c1N [Compound 1-47, 4-Amino-5-(3-chloro-benzoyl)-2-(2-piperidin-1-yl-ethylamino)-thiophene-3-carbonitrile] | –
– | – | Cc1ccc2cccnc2c1NS(=O)(=O)c1ccc(Br)s1 [Compound 3-6, 5-Bromo-thiophene-2-sulfonic acid (7-methyl-quinolin-8-yl)-amide] | IC50 [1, 4]: > 10 µM; IC50 (PDE4D; [5]): > 10 µM
< 10 µM | < 10 µM | CCOC(=O)c1sc(NC2CCCC2)c(C#N)c1N [Compound 1-199, 3-Amino-4-cyano-5-cyclopentylamino-thiophene-2-carboxylic acid ethyl ester] | –
> 10 µM | > 10 µM | CN1CCN(C(=O)C(=O)c2sc(NC3CCCC3)c(C#N)c2N)CC1 [Compound 1-218, 4-Amino-2-cyclopentylamino-5-[2-(4-methyl-piperazin-1-yl)-2-oxo-acetyl]-carbonitrile] | –
< 10 µM | < 10 µM | CCOC(=O)C(=O)c1sc(NC2CCCC2)c(C#N)c1N [Compound 1-201, (3-Amino-4-cyano-5-cyclopentylamino-thiophen-2-yl)-oxo-acetic acid ethyl ester] | –
< 10 µM | < 10 µM | CC(C)Nc1sc(C(=O)c2ccc(Cl)c(Cl)c2)c(N)c1C#N [Compound 1-217, 4-Amino-5-(3,4-dichloro-benzoyl)-2-isopropylamino-thiophene-3-carbonitrile] | –
< 10 µM | < 10 µM | COC(=O)c1ccccc1Nc1sc(C(=O)c2ccccn2)c(N)c1C#N [Compound 1-148, 2-[4-Amino-3-cyano-5-(pyridine-2-carbonyl)-thiophen-2-ylamino]-benzoic acid methyl ester] | –
> 10 µM | > 10 µM | COc1ccc(Nc2sc(C(=O)c3ccccn3)c(N)c2C#N)cc1 [Compound 1-145, 4-Amino-2-(4-methoxy-phenylamino)-5-(pyridine-2-carbonyl)-thiophene-3-carbonitrile] | –
– | – | Cc1ccc2cccnc2c1NS(=O)(=O)c1cc(Cl)sc1Cl [Compound 3-11, 2,5-Dichloro-thiophene-3-sulfonic acid (7-methyl-quinolin-8-yl)-amide] | IC50 [1, 4]: > 10 µM; IC50 (PDE4D; [5]): > 10 µM

IC50 [1, 2] | IC50 (PDE4D; [3]) | Compound | further results
< 10 µM | > 10 µM | N#Cc1c(Nc2ccc(C(=O)NC3CCOC3=O)cc2)sc(C(=O)c2ccccn2)c1N (centres unmarked) [Compound 1-151, 4-[4-Amino-3-cyano-5-(pyridine-2-carbonyl)-thiophen-2-ylamino]-N-(2-oxo-tetrahydro-furan-3-yl)-benzamide] | –
< 10 µM | < 10 µM | Cc1c(C(=O)c2sc(Nc3ccc(C(=O)NC4CCOC4=O)cc3)c(C#N)c2N)cnn1-c1ccccc1 (centres unmarked) [Compound 1-127, 4-[4-Amino-3-cyano-5-(5-methyl-1-phenyl-1H-pyrazole-4-carbonyl)-thiophen-2-ylamino]-N-(2-oxo-tetrahydro-furan-3-yl)-benzamide] | –
– | – | COc1ccc(Nc2nc(N)c(C(=O)C3CCCC3)s2)cc1 [Compound 2-99, [4-Amino-2-(4-methoxy-phenylamino)-thiazol-5-yl]-cyclopentyl-methanone] | IC50 [1, 6]: > 10 µM; IC50 (PDE4D; [7]): > 10 µM
< 10 µM | < 10 µM | CCOC(=O)c1cc(C(=O)c2sc(Nc3cccc(SC)c3)c(C#N)c2N)on1 [Compound 1-176, 5-[3-Amino-4-cyano-5-(3-methylsulfanyl-phenylamino)-thiophene-2-carbonyl]-isoxazole-3-carboxylic acid ethyl ester] | –
– | – | Cc1ccc2cccnc2c1NS(=O)(=O)c1cc(S(=O)(=O)c2ccccc2)cs1 [Compound 3-39, 4-Benzenesulfonyl-thiophene-2-sulfonic acid (7-methyl-quinolin-8-yl)-amide] | IC50 [1, 4]: > 10 µM; IC50 (PDE4D; [5]): > 10 µM
– | – | COc1ccc(C(=O)c2sc(Nc3cccc(C#N)c3)nc2N)cc1 [Compound 2-48, 3-[4-Amino-5-(4-methoxy-benzoyl)-thiazol-2-ylamino]-benzonitrile] | IC50 [1, 6]: < 10 µM; IC50 (PDE4D; [7]): < 10 µM
< 10 µM | < 10 µM | COc1ccc(Nc2sc(C(=O)c3coc4ccccc34)c(N)c2C#N)cc1 [Compound 1-105, 4-Amino-5-(benzofuran-3-carbonyl)-2-(4-methoxy-phenylamino)-thiophene-3-carbonitrile] | –
– | – | CCOC(=O)c1cc(C(=O)c2sc(Nc3ccc(Oc4ccccc4)cc3)nc2N)on1 [Compound 2-3, 5-[4-Amino-2-(4-phenoxy-phenylamino)-thiazole-5-carbonyl]-isoxazole-3-carboxylic acid ethyl ester] | IC50 ([1]; first part of Table 2B (2-1 to 2-22), read-out: IC 50 vs. indicated assay PDE4B): > 10 µM; IC50 (PDE4D; first part of Table 2B (2-1 to 2-22), read-out: IC 50 vs. indicated assay PDE4D): > 10 µM
– | – | COc1cc(NS(=O)(=O)c2ccc(C#N)cc2)c2ncccc2c1 [Compound 3-52, 4-Cyano-N-(6-methoxy-quinolin-8-yl)-benzenesulfonamide] | IC50 [1, 4]: > 10 µM; IC50 (PDE4D; [5]): > 10 µM
– | – | COc1cc(NS(=O)(=O)c2ccccc2C)c2ncccc2c1 [Compound 3-57, N-(6-Methoxy-quinolin-8-yl)-2-methyl-benzenesulfonamide] | IC50 [1, 4]: > 10 µM; IC50 (PDE4D; [5]): > 10 µM
> 10 µM | > 10 µM | COC(=O)C(CC(C)C)Nc1sc(C(=O)c2cc(-c3ccc(Cl)c(Cl)c3)no2)c(N)c1C#N (centres unmarked) [Compound 1-84, 2-{4-Amino-3-cyano-5-[3-(3,4-dichloro-phenyl)-isoxazole-5-carbonyl]-thiophen-2-ylamino}-4-methyl-pentanoic acid methyl ester] | –
< 10 µM | < 10 µM | N#Cc1c(NC2CCCC2)sc(C(=O)c2ccc(Oc3ccccc3)cc2)c1N [Compound 1-231, 4-Amino-2-cyclopentylamino-5-(4-phenoxy-benzoyl)-thiophene-3-carbonitrile] | –
– | – | Cc1ccc2cccnc2c1NS(=O)(=O)c1cccs1 [Compound 3-5, Thiophene-2-sulfonic acid (7-methyl-quinolin-8-yl)-amide] | IC50 [1, 4]: > 10 µM; IC50 (PDE4D; [5]): > 10 µM
< 10 µM | < 10 µM | COC(=O)c1ccccc1Nc1sc(C(=O)c2ccc(-c3ccccn3)s2)c(N)c1C#N [Compound 1-73, 2-[4-Amino-3-cyano-5-(5-pyridin-2-yl-thiophene-2-carbonyl)-thiophen-2-ylamino]-benzoic acid methyl ester] | –
> 10 µM | > 10 µM | COC(=O)C(CCSC)Nc1sc(C(=O)c2cnn(-c3ccccc3)c2C)c(N)c1C#N (centres unmarked) [Compound 1-53, 2-[4-Amino-3-cyano-5-(5-methyl-1-phenyl-1H-pyrazole-4-carbonyl)-thiophen-2-ylamino]-4-methylsulfanyl-butyric acid methyl ester] | –
– | – | COc1cccc(C(=O)c2sc(NC3CC3)nc2N)c1 [Compound 2-87, (4-Amino-2-cyclopropylamino-thiazol-5-yl)-(3-methoxy-phenyl)-methanone] | IC50 [1, 6]: < 10 µM; IC50 (PDE4D; [7]): < 10 µM
– | – | COC(=O)c1ccc(S(=O)(=O)Nc2c(C)ccc3cccnc23)o1 [Compound 3-43, 5-(7-Methyl-quinolin-8-ylsulfamoyl)-furan-2-carboxylic acid methyl ester] | IC50 [1, 4]: > 10 µM; IC50 (PDE4D; [5]): > 10 µM
